Row | SMILES | log10 Koc (L/kg) | log10 vapour pressure (mmHg) | melting point | boiling point | ready biodegradability | log10 Henry constant (atm·m³/mol) | log10 Koa | log10 biodegradation half-life (days)
1 | CCCN(CCCl)c1c([N+](=O)[O-])cc(C(F)(F)F)cc1[N+](=O)[O-] | 3.55 | -4.52 | 42 °C |  |  |  |  | 
2 | C[C@@H](O)C(=O)c1ccccc1 |  |  |  | 251 °C |  |  |  | 
3 | FC(F)(F)C1(F)C(F)(F)C(F)(F)C(F)(F)C(F)(F)C1(F)C(F)(F)F (stereo not given) |  |  |  |  | not readily biodegradable |  |  | 
4 | OC(CCN1CCCCC1)(c1ccccc1)C1CC2C=CC1C2 (stereo not given) |  |  | 114 °C |  |  |  |  | 
5 | CC(C)(Br)C(=O)Br |  |  |  | 163 °C |  |  |  | 
6 | CNC(=O)Oc1cccc2c1OC(C)(C)O2 | 2.75 |  |  |  |  |  |  | 
7 | CCCCOc1ccc(C)cc1 |  |  |  | 230 °C |  |  |  | 
8 | CCCCCCCCC(=O)O |  | -2.78 | 12.3 °C | 254 °C | readily biodegradable |  |  | 
9 | CC(c1ccccc1)c1ccccc1O (stereo not given) |  |  |  |  | not readily biodegradable |  |  | 
10 | CCOC(=O)C(C)(C)C(=O)OCC |  |  | -30.4 °C | 197 °C |  |  |  | 
11 | COc1cc(OC)nc(N=C(O)NS(=O)(=O)Nc2ccccc2C(=O)C2CC2)n1 |  |  | 162 °C |  |  |  |  | 
12 | O=C(C(=O)c1ccccc1)c1ccccc1 |  | -3.68 | 94.8 °C | 347 °C |  |  |  | 
13 | CCOC(=O)c1ccc(OC)cc1 |  |  | 7.5 °C | 270 °C |  |  |  | 
14 | O=[N+]([O-])c1ccc2c(c1)Cc1ccccc1-2 |  |  | 157 °C |  |  |  |  | 
15 | O=c1cc[nH]c(=O)[nH]1 |  | -4.33 | 338 °C |  |  |  |  | 
16 | CCC(C)c1ccc(OCC2CO2)cc1 (stereo not given) |  |  |  |  | not readily biodegradable |  |  | 
17 | CCOc1ccc(C=O)cc1 |  |  | 13.5 °C | 249 °C |  |  |  | 
18 | CC(O)C(C)O[N+](=O)[O-] (stereo not given) |  |  |  |  |  | -7 |  | 
19 | CCCCCCCCCCCCCCCCCC(=O)O |  | -6.14 | 68.8 °C | 383 °C | readily biodegradable |  |  | 
20 | CCN(CC)c1c([N+](=O)[O-])cc(C(F)(F)F)c(N)c1[N+](=O)[O-] | 3.63 | -5.44 | 98 °C |  |  |  |  | 
21 | O=CNC1CCCCC1 |  |  | 39.5 °C | 260 °C |  |  |  | 
22 | CC(C)=CC1C(C(=O)OCc2cccc(Oc3ccccc3)c2)C1(C)C (stereo not given) |  | -6.84 |  |  |  |  |  | 

Row | SMILES | log10 Koc (L/kg) | log10 vapour pressure (mmHg) | melting point | boiling point | ready biodegradability | log10 Henry constant (atm·m³/mol) | log10 Koa | log10 biodegradation half-life (days)
23 | C#CC1(O)CCCC1 |  |  | 27 °C | 158 °C |  |  |  | 
24 | CC(CO)c1ccccc1 (stereo not given) |  | -1.72 | -13 °C |  |  |  |  | 
25 | O=C(c1ccccc1)c1ccccc1 |  |  |  |  | not readily biodegradable |  |  | 
26 | Cc1cc(O)cc(C)c1Cl |  |  | 115 °C | 246 °C |  |  |  | 
27 | Cc1cccc(Nc2ccccc2C(=O)O)c1C |  |  | 230 °C |  |  |  |  | 
28 | CCN1CCCC1 |  |  |  | 104 °C |  |  |  | 
29 | NNc1ccccc1 |  | -1.58 | 19.6 °C | 244 °C |  |  |  | 
30 | COc1cc(OC)n2nc(S(=O)(=O)Nc3c(Cl)ccc(C)c3Cl)nc2n1 |  |  | 211 °C |  |  |  |  | 
31 | CCCOC(C)=O |  | 1.56 | -93 °C | 102 °C | readily biodegradable | -3.66 | 3.17 | 
32 | O=C1CNC(=S)N1 |  |  | 230 °C |  |  |  |  | 
33 | c1ccc(N=Nc2ccc(Nc3ccccc3)cc2)cc1 |  |  | 90 °C |  |  |  |  | 
34 | COc1c2ccoc2cc2oc(C)cc(=O)c12 |  |  | 144 °C |  |  |  |  | 
35 | CCCOC(=O)c1ccc(O)cc1 |  |  | 97 °C |  |  |  |  | 
36 | C1CC2CCCC(C1)C2 |  |  | 146 °C | 170 °C |  |  |  | 
37 | S=C(Nc1ccccc1)c1ccccc1 |  |  | 102 °C |  |  |  |  | 
38 | O=C(Nc1ccccc1)NC1CCCCCC1 | 2.37 |  |  |  |  |  |  | 
39 | CCCCc1cc2c(=O)c(C(=O)OC)c[nH]c2cc1OCc1ccccc1 |  |  | 288 °C |  |  |  |  | 
40 | O=C(CO)c1ccccc1 |  |  | 90 °C |  |  |  |  | 
41 | CNC(=O)Nc1ccc(C)c(Cl)c1 | 2.1 |  |  |  |  |  |  | 
42 | CCCC(=O)C=Cc1ccc(O)c(O)c1 |  |  | 132 °C |  |  |  |  | 
43 | c1ccc(Cc2nc3ccccc3[nH]2)cc1 |  |  | 187 °C |  |  |  |  | 
44 | Clc1cccc(-c2cccc(Cl)c2Cl)c1 |  |  |  |  |  | -3.8 |  | 

Row | SMILES | log10 Koc (L/kg) | log10 vapour pressure (mmHg) | melting point | boiling point | ready biodegradability | log10 Henry constant (atm·m³/mol) | log10 Koa | log10 biodegradation half-life (days)
45 | CN(C)c1ccc(/N=N/c2ccccc2C(=O)O)cc1 |  |  | 183 °C |  |  |  |  | 
46 | C[Si](C)(C)CCCCl |  |  |  | 151 °C |  |  |  | 
47 | O=[N+]([O-])c1ccccc1I |  |  | 54 °C | 290 °C |  |  |  | 
48 | CCOC(=O)CC(=O)OCC |  | -0.57 | -50 °C | 200 °C | readily biodegradable |  |  | 
49 | Clc1ccc(OCOc2ccc(Cl)cc2)cc1 |  |  | 70.5 °C |  |  |  |  | 
50 | CCC(Cc1c(I)cc(I)c(O)c1I)C(=O)O (stereo not given) |  |  | 147 °C |  |  |  |  | 
51 | CNC(=O)Oc1ccc2c(c1)[C@]1(C)CCN(C)[C@@H]1N2C |  |  | 106 °C |  |  |  |  | 
52 | C=CC#CCC |  |  |  | 85 °C |  |  |  | 
53 | Cc1ccsc1C |  |  | -49 °C | 142 °C |  |  |  | 
54 | NC(=O)C1(N2C(=O)c3cccc(Cl)c3C2=O)CCCCC1 |  |  | 194 °C |  |  |  |  | 
55 | Oc1ccc2c(c1)[C@@]13CCCC[C@H]1[C@@H](C2)N(CCc1ccccc1)CC3 |  |  | 244 °C |  |  |  |  | 
56 | CCc1cc(C)cc(C)c1 |  | 0.0133 | -84.3 °C | 184 °C |  |  |  | 0.301
57 | CCOC(=O)C(C)C |  | 1.4 | -88.2 °C | 110 °C |  |  |  | 
58 | C[C@H](CCC(=O)O)[C@H]1CC[C@H]2[C@@H]3C(=O)C[C@@H]4CC(=O)CC[C@]4(C)[C@H]3CC(=O)[C@]12C |  |  | 237 °C |  |  |  |  | 
59 | CC1(C)C(=O)NC(=O)N1CO |  |  | 100 °C |  |  |  |  | 
60 | COc1ccc2c(OC)c3ccoc3nc2c1OC |  |  | 177 °C |  |  |  |  | 
61 | CCC(O)CO (stereo not given) |  | -1.3 |  | 194 °C | readily biodegradable |  |  | 
62 | Cc1ccc(N=Nc2c(O)ccc3ccccc23)c([N+](=O)[O-])c1 |  |  |  |  | not readily biodegradable |  |  | 
63 | CCCCC(=O)O[C@]1(C(=O)CO)CC[C@H]2[C@@H]3CCC4=CC(=O)CC[C@]4(C)[C@H]3[C@@H](O)C[C@@]21C |  |  | 218 °C |  |  |  |  | 
64 | Cc1ccsc1/C=C/C1=NCCCN1C |  |  | 240 °C |  |  |  |  | 
65 | OC(CNc1ccccn1)c1ccccc1 (stereo not given) |  |  | 83.5 °C |  |  |  |  | 

Source: the OPERA property sets (Mansouri et al. 2018)
